Laboratory results reported in PubChem BioAssay (NCI).
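Protocol summary: plate cells (96-well), add compound at 5 concentrations, incubate 48 h, interpolate endpoints linearly. TGI is the concentration that stops growth completely.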

Experiments:
Test in all cases: NCI tumour cell line growth inhibition, 48 h
DLD-1 colon = test system: DLD-1 colon
DMS 114 small cell lung = test system: DMS 114 small cell lung
DMS 273 small cell lung = test system: DMS 273 small cell lung
HOP-18 NSCLC = test system: HOP-18 NSCLC
KM20L2 colon = test system: KM20L2 colon
LXFL 529 NSCLC = test system: LXFL 529 NSCLC
M19-MEL melanoma = test system: M19-MEL melanoma
SNB-78 CNS = test system: SNB-78 CNS
XF 498 CNS = test system: XF 498 CNS
RXF-631 renal = test system: RXF-631 renal
P388 leukemia = test system: P388 leukemia
P388/ADR leukemia = test system: P388/ADR leukemia
SN12K1 renal = test system: SN12K1 renal

Compound	TGI (DLD-1 colon)	TGI (DMS 114 small cell lung)	TGI (DMS 273 small cell lung)	TGI (HOP-18 NSCLC)	TGI (KM20L2 colon)	TGI (LXFL 529 NSCLC)	TGI (M19-MEL melanoma)	TGI (SNB-78 CNS)	TGI (XF 498 CNS)	TGI (RXF-631 renal)	TGI (P388 leukemia)	TGI (P388/ADR leukemia)	TGI (SN12K1 renal)
O=C(Cc1csc(-c2nc(CC(=O)NNc3ccccc3)cs2)n1)NNc1ccccc1	> 100 µM	45.1 µM	34.2 µM	> 100 µM	> 100 µM	> 100 µM	> 100 µM	> 100 µM	> 100 µM	–	–	–	–
CS(=O)(=O)c1c(N)c2nc(Cl)cn2c2nc3ccccc3nc12	> 100 µM	> 100 µM	> 100 µM	–	> 100 µM	> 100 µM	> 100 µM	> 100 µM	> 100 µM	> 100 µM	–	–	–
COC1C(O)C(C)OC(OC2C(Oc3cccc4c(O)c5c(=O)oc6ccc(C)c7c(=O)oc(c34)c5c67)OC(C)C(O)C2O)C1O (configuration not stated)	14.9 µM	4.03 µM	9.1 µM	8.35 µM	18.5 µM	–	4.39 µM	19.3 µM	3.37 µM	–	3.48 µM	85 µM	3.5 µM
CC(=O)c1ccc2c(ccc(=O)n2C)c1	> 100 µM	> 100 µM	> 100 µM	> 100 µM	> 100 µM	> 100 µM	> 100 µM	–	> 100 µM	–	–	–	–
CCN1C[C@]2(C)CC[C@H](OC)C34C1C([C@H](OC(C)=O)[C@@H]32)[C@@]1(OC)C[C@H](OC)[C@H]2C[C@@H]4[C@@H]1[C@H]2O	> 100 µM	> 100 µM	> 100 µM	> 100 µM	> 100 µM	> 100 µM	> 100 µM	> 100 µM	> 100 µM	–	–	–	–
NC(=O)c1coc(C2OC(CO)C(O)C2O)n1 (configuration not stated)	–	> 100 µM	> 100 µM	> 100 µM	> 100 µM	> 100 µM	> 100 µM	> 100 µM	–	–	–	–	–
CCN(CC)CCCC(C)Nc1ccnc2ccc3nn(C)nc3c12 (configuration not stated)	> 100 µM	–	91.5 µM	> 100 µM	> 100 µM	> 100 µM	> 100 µM	> 100 µM	–	–	–	–	–
Clc1ccccc1C1=NN(c2ccccc2)C2c3ccccc3OCC12 (configuration not stated)	> 100 µM	> 100 µM	> 100 µM	> 100 µM	> 100 µM	> 100 µM	> 100 µM	> 100 µM	> 100 µM	> 100 µM	–	–	–
c1ccc(C2=NOC3(c4ccccc4)SC4CCCCC4CN23)cc1 (configuration not stated)	> 100 µM	30.5 µM	77.3 µM	> 100 µM	> 100 µM	27 µM	> 100 µM	91.7 µM	> 100 µM	–	–	–	–
CN(C)/N=C(/c1nc2ccc([N+](=O)[O-])cc2[nH]c1=O)C(O)c1ccco1 (configuration not stated)	> 100 µM	> 100 µM	> 100 µM	–	> 100 µM	> 100 µM	> 100 µM	> 100 µM	> 100 µM	–	–	–	–
O=c1[nH]c2cc([N+](=O)[O-])ccc2nc1/C(=N/Nc1ccccc1)C(O)c1ccc(C(O)/C(=N\Nc2ccccc2)c2cnc3cc([N+](=O)[O-])ccc3n2)cc1 (configuration not stated)	–	> 100 µM	–	–	> 100 µM	–	> 100 µM	–	–	–	–	–	–
CN(CCO)c1nc(N)cc(=O)[nH]1	> 100 µM	> 100 µM	> 100 µM	> 100 µM	> 100 µM	> 100 µM	> 100 µM	> 100 µM	> 100 µM	–	–	–	–
COc1ccc(C2Oc3cc(OC)c(O)c(C)c3[C@H]2C)cc1 (some centres not stated)	> 100 µM	> 100 µM	> 100 µM	> 100 µM	> 100 µM	> 100 µM	> 100 µM	> 100 µM	–	–	–	–	–
